Data: patent US10233144B2, “Crystalline form of AHU377, preparation method and use thereof” (CRYSTAL PHARMATECH CO., LTD., priority 2015, dated 2019)

Assay: Hygroscopicity assessment by dynamic vapor sorption (DVS)
Type: physicochemical
Details: 25° C.; for weight gain under 80% RH: DVS, 10 mg sample
Experimental: Dynamic Vapor Sorption (DVS) was measured via a SMS (Surface Measurement Systems) DVS Intrinsic. Typical Parameters for DVS test are listed below. Temperature: 25° C. Gas and flow rate: N2, 200 mL/min dm/dt: 0.002%/min RH range: 0% RH to 95% RH 10 mg of crystalline Form I of the present disclosure was tested using dynamic vapor sorption (DVS). 4. The DVS isotherm plot of crystalline Form I is depicted in FIG. 4. About hygroscopicity characterization description and definition of hygroscopicity (Chinese Pharmacopoeia 2010 edition appendix XIX J Drug hygroscopic test guidelines, test at 25° C.±1° C., 80% Relative Humidity) • deliquescent: sufficient water is absorbed to form a liquid; • very hygroscopic: increase in mass is equal to or greater than 15 percent; • hygroscopic: increase in mass is less than 15 percent and equal to or greater than 2 percent; • slightly hygroscopic: increase in mass is less than 2 percent and equal to or greater than 0.2 percent. • no or almost no hygroscopic: increase in mass is less than 0.2 percent

CCOC(=O)[C@H](C)C[C@@H](Cc1ccc(-c2ccccc2)cc1)NC(=O)CCC(=O)O [Crystalline Form I of AHU377, (2R,4S)-5-(Biphenyl-4-yl)-4-[(3-carboxypropionyl)amino]-2-methylpentanoic acid ethyl ester]
hygroscopicity (class according to hygroscopic test guidelines) (Chinese Pharmacopoeia 2010 appendix XIX J, 80% Relative Humidity): slightly hygroscopic (increase in mass is less than 2 percent and equal to or greater than 0.2 percent) | weight gain under 80% RH: 0.35% | weight gain under 80% RH (listed as crystalline Form I): 0.35%
